Converted amounts (≈) assume the structure as drawn. Where two headings read alike, the source gives them in different places.
What was measured:
[1] = test system: NL4-3 virus (HIV, wild-type); assay: Anti-HIV activity assay (TZM-bl cell model), NL4-3 wild-type; type: cell-based; conditions: human, TZM-bl cells infected with HIV-1 NL4-3 virus; CC50 (TZM-bl) / EC50 (NL4-3); read-out: SI, selective index, ratio of toxic CC50 value to active EC50 value
Experimental: (§1) The assay was carried out by reference to the document (Dang, Z, et al. J. Med. Chem. 2009, 52, 7887-7891). In particular, in a 96-well cell culture plate, solutions of the compounds to be tested at different concentrations were mixed with TZM-bl cells (from National Institutes of Health (NIH)) infected with 200 TCID50 NL4-3 virus, respectively. 2 days later, the culture medium was removed, 100 μl of Bright Glo reagent was added to each well, and Victor 2 luminometer was used to detect the […] of the cells.

[2] = test system: NL4-3 virus; assay: as above; type: cell-based; conditions: read-out: EC50, concentration effective to inhibit the replication of half of viruses
Experimental: as §1

[3] = TZM-bl cytotoxicity assay (XTT); type: cell-based; conditions: human, TZM-bl cells, read-out: CC50, concentration effective to inhibit the growth of half of cells
Experimental: The assay was carried out by reference to the document (Dang, Z, et al. J. Med. Chem. 2009, 52, 7887-7891). In particular, in a 96-well cell culture plate, solutions of Compounds 1-57 at different concentrations (100 μl) were mixed with an equivalent volume of TZM-bl cells (from National Institutes of Health (NIH)) (5×10^5/mL), and were incubated at 37° C. for 4 d. 50 μl of freshly prepared XTT solution (1 mg/mL) containing 0.02 μM PMS was added. Optical density at 450 nm was measured 4 h later.

[4] = test system: K101E drug-resistant virus; assay: Activity against drug-resistant virus K101E; type: cell-based, HIV; conditions: Human immunodeficiency virus 1, read-out: Drug-resistant viruses EC50, K101E
[5] = Water-solubility at pH2.0; type: physicochemical; conditions: aqueous medium (water) at pH 2.0, pH 2, simulated gastric fluid
[6] = Incubation experiment of human liver microsomes; type: in vitro ADME
[7] = Human immunodeficiency virus 1, NL43, NL4-3 HIV wild-type, TZM-bl cells

| SMILES | melting point [°C] | selectivity ratio at 2 days [1] | EC50 [2, 7] [µM] | CC50 at 4 d [3] [µM] | other results |
| --- | --- | --- | --- | --- | --- |
| Cc1cc(/C=C/C#N)cc(C)c1Oc1cc(Nc2ccc(C#N)cc2)c([N+](=O)[O-])cc1C(F)(F)F [Compound 1, 5-(4″-cyanovinyl-2″,6″-dimethylphenoxy)-N^1-(4′-cyanophenyl)-4-trifluoromethyl-2-nitroaniline] | 248 to 250 |  |  |  |  |
| COC(=O)c1cc([N+](=O)[O-])c(Nc2ccc(C#N)cc2)cc1Oc1c(C)cc(/C=C/C#N)cc1C [Compound 3, 5-(4″-cyanovinyl-2″,6″-dimethylphenoxy)-N^1-(4′-cyanophenyl)-4-methoxycarbonyl-2-nitroaniline] | 260 to 262 |  |  |  |  |
| Cc1cc(/C=C/C#N)cc(C)c1Oc1cc(Nc2ccc(C#N)cc2)c([N+](=O)[O-])cc1CO [Compound 5, N^1-(4′-cyanophenyl)-5-(4″-cyanovinyl-2″,6″-dimethylphenoxy)-4-hydroxymethyl-2-nitroaniline] | 232 to 234 |  |  |  |  |
| Cc1cc(/C=C/C#N)cc(C)c1Oc1cc(Nc2ccc(C#N)cc2)c([N+](=O)[O-])cc1C(=O)O [Compound 7, 4-carboxyl-5-(4″-cyanovinyl-2″,6″-dimethylphenoxy)-N^1-(4′-cyanophenyl)-2-nitroaniline] | 262 to 265 |  |  |  |  |
| Cc1cc(/C=C/C#N)cc(C)c1Oc1cc(Nc2ccc(C#N)cc2)c([N+](=O)[O-])cc1C(N)=O [Compound 9] | 278 to 280 |  |  |  |  |
| Cc1cc(CCC#N)cc(C)c1Oc1cc(Nc2ccc(C#N)cc2)c(N)cc1C(N)=O [Compound 10, 4-carbamoyl-N^1-(4′-cyanophenyl)-5-(4″-cyanoethyl-2″,6″-dimethylphenoxy)-1,2-phenylenediamine] |  | > 6760 | 0.00139 | > 9.4 |  |
| CNC(=O)c1cc([N+](=O)[O-])c(Nc2ccc(C#N)cc2)cc1Oc1c(C)cc(/C=C/C#N)cc1C [Compound 11, N^1-(4′-cyanophenyl)-5-(4″-cyanovinyl-2″,6″-dimethylphenoxy)-4-(N-methylacylamino)-2-nitroaniline] | 218 to 220 |  |  |  |  |
| CNC(=O)c1cc(N)c(Nc2ccc(C#N)cc2)cc1Oc1c(C)cc(CCC#N)cc1C [Compound 12, 5-(4″-cyanoethyl-2″,6″-dimethylphenoxy)-N^1-(4′-cyanophenyl)-4-(N-methyl-carbamoyl)-1,2-phenylenediamine] |  | > 3330 |  | > 9.1 | EC50 ([2]; Human immunodeficiency virus 1, NL43, TZM-bl): 0.00273 µM; EC50 [4]: 0.014 µM; solubility [5]: 8.28 µg/mL (≈ 18.8 µM); HLM t1/2 [6]: 55.7 min |
| Cc1cc(/C=C/C#N)cc(C)c1Oc1cc(Nc2ccc(C#N)cc2)c([N+](=O)[O-])cc1S(N)(=O)=O [Compound 13, N-(4′-cyanophenyl)-5-(4″-cyanovinyl-2″,6″-dimethylphenoxy)-4-aminosulfonyl-2-nitroaniline] | 198 to 200 |  |  |  |  |
| CCCc1cc(C)c(Oc2ccc(N)c(Nc3ccc(C#N)cc3)n2)c(C)c1 [Compound 16, N^2-(4-cyanoanilinyl)-6-(2,6-dimethyl-4-propylphenoxy)-3-aminopyridine] |  | 1120 | 0.0147 | 16.4 |  |
| Cc1cc(CO)cc(C)c1Oc1cc(Nc2ccc(C#N)cc2)c([N+](=O)[O-])cc1CO [Compound 17, N-(4′-cyanophenyl)-5-(4″-hydroxymethyl-2″,6″-dimethylphenoxy)-4-hydroxymethyl-2-nitroaniline] | 216 to 218 |  |  |  |  |
| Cc1cc(CO)cc(C)c1Oc1cc(Nc2ccc(C#N)cc2)c(N)cc1CO [Compound 18, N^1-(4′-cyanophenyl)-5-(4″-hydroxymethyl-2″,6″-dimethylphenoxy)-4-hydroxymethyl-1,2-phenylenediamine] |  | > 1590 | 0.01 | > 15.9 |  |
| N#CCCc1cc(F)c(Oc2ccc(N)c(Nc3ccc(C#N)cc3)n2)c(F)c1 [Compound 21, N^2-(4-cyanoanilinyl)-6-(2,6-difluoro-4-cyanoethyl-phenoxy)-3-aminopyridine] |  | > 3640 | 0.0028 | > 10.2 |  |
| COC(=O)CCc1cc(F)c(Oc2ccc(N)c(Nc3ccc(C#N)cc3)n2)c(F)c1 [Compound 23, N^2-(4-cyanoanilinyl)-6-(2,6-difluoro-4-methyl propionatephenoxy)-3-aminopyridine] |  | > 155 | 0.099 | > 15.3 |  |
| N#Cc1ccc(Nc2nc(Oc3c(F)cc(CCCO)cc3F)ccc2N)cc1 [Compound 24, N^2-(4-cyanoanilinyl)-6-(2,6-difluoro-4-(3-hydroxypropyl)phenoxy)-3-aminopyridine] |  | > 525 | 0.048 | > 25.2 |  |
| COc1cc(/C=C/C#N)cc(Br)c1Oc1ccc(N)c(Nc2ccc(C#N)cc2)n1 [Compound 26B] |  | 1210 | 0.0257 | 21.3 |  |
| CC(=O)/C=C/c1cc(F)c(Oc2ccc([N+](=O)[O-])c(Nc3ccc(C#N)cc3)n2)c(F)c1 [Compound 29, N^2-(4-cyanoanilinyl)-6-(2,6-difluoro-4-((E)-1-methyleneacetonyl)phenoxy)-3-nitropyridine] | 275 to 277 |  |  |  |  |
| CC(=O)CCc1cc(F)c(Oc2ccc(N)c(Nc3ccc(C#N)cc3)n2)c(F)c1 [Compound 30, N^2-(4-cyanoanilinyl)-6-(2,6-difluoro-4-(2-butanonyl)phenoxy)-3-aminopyridine] |  | > 2130 | 0.0047 | > 9.8 |  |
| Cc1cc(CCC#N)cc(C)c1Oc1cc(Nc2ccc(C#N)cc2)c(N)cc1N [Compound 35, 5-(4″-cyanoethyl-2″,6″-dimethylphenoxy)-N^1-(4′-cyanophenyl)-4-amino-1,2,4-triaminobenzene] | 118 to 120 | > 820 | 0.0061 | > 5 |  |
| Cc1cc(CCC#N)cc(C)c1Oc1cc(Nc2ccc(C#N)cc2)c(N)cc1C(=O)NN [Compound 36, 5-(4″-cyanoethyl-2″,6″-dimethylphenoxy)-N^1-(4′-cyanophenyl)-4-formhydrazide-1,2-phenylenediamine] |  | > 1190 | 0.0191 | > 22.7 |  |
| CC(=O)OCc1cc(N)c(Nc2ccc(C#N)cc2)cc1Oc1c(C)cc(CCC#N)cc1C [Compound 37, 4-acetyloxymethyl-N^1-(4′-cyanophenyl)-5-(4″-cyanoethyl-2″,6″-dimethylphenoxy)-1,2-phenylenediamine] |  | > 1520 | 0.00329 | > 5 |  |
| COCc1cc(N)c(Nc2ccc(C#N)cc2)cc1Oc1c(C)cc(CCC#N)cc1C [Compound 38, N^1-(4′-cyanophenyl)-5-(4″-cyanoethyl-2″,6″-dimethylphenoxy)-4-methoxymethyl-1,2-phenylenediamine] |  | > 2290 | 0.00218 | > 5 |  |
| Cc1cc(CCC#N)cc(C)c1Oc1cc(Nc2ccc(C#N)cc2)c(N)cc1COC(=O)C1CC1 [Compound 39, N^1-(4′-cyanophenyl)-5-(4″-cyanoethyl-2″,6″-dimethylphenoxy)-4-cyclopropionyloxymethyl-1,2-phenylenediamine] |  | > 3070 | 0.00163 | > 5 |  |
| Cc1cc(CCC#N)cc(C)c1Oc1cc(Nc2ccc(C#N)cc2)c(N)cc1CN(C)C [Compound 40, N^1-(4′-cyanophenyl)-5-(4″-cyanoethyl-2″,6″-dimethylphenoxy)-4-[N,N-dimethylaminomethyl]-1,2-phenylenediamine] |  | > 1830 | 0.00273 | > 5 |  |
| CCNC(=O)c1cc(N)c(Nc2ccc(C#N)cc2)cc1Oc1c(C)cc(CCC#N)cc1C [Compound 41] |  | > 1080 | 0.00463 | > 5 |  |
| Cc1cc(CCC#N)cc(C)c1Oc1cc(Nc2ccc(C#N)cc2)c(N)cc1C(=O)N(C)C [Compound 42, N^1-(4′-cyanophenyl)-5-(4″-cyanoethyl-2″,6″-dimethylphenoxy)-4-[N,N-dimethylformamido]-1,2-phenylenediamine] |  | > 810 | 0.00617 | > 5 |  |
| Cc1cc(CCC#N)cc(C)c1Oc1cc(Nc2ccc(C#N)cc2)c(N)cc1C(=O)NC1CC1 [Compound 43, N^1-(4′-cyanophenyl)-5-(4″-cyanoethyl-2″,6″-dimethylphenoxy)-4-[N-cyclopropylformamido]-1,2-phenylenediamine] |  | > 3760 | 0.00133 | > 5 |  |
